The series can be described thus: photoluminescence quantum yield (fraction); solvent given as SMILES.
Setting [1] is: in O=P(c1ccccc1)(c1ccccc1)c1ccccc1Oc1ccccc1P(=O)(c1ccccc1)c1ccccc1.

`Cc1ccc(C)c2nc3c(=O)[nH]c(=O)[nH]c3nc12` had a photoluminescence quantum yield (in CC#N) of 0.08.

Consider `COc1cc(OC)cc(-c2ccc(-c3ccc(C#N)s3)s2)c1`, for which the photoluminescence quantum yield (in C1CCCCC1) is 0.09; the photoluminescence quantum yield (in C1COCCO1) came to 0.09; the photoluminescence quantum yield (in CC#N) amounted to 0.11; the photoluminescence quantum yield (in CC(C)O) came out at 0.1; the photoluminescence quantum yield (in CCCCO) came out at 0.1; the photoluminescence quantum yield (in CCO) was 0.1. Besides, the photoluminescence quantum yield is, setting by setting: (in CCOC(C)=O) 0.09; (in CN(C)C=O) 0.12; (in CO) 0.1; (in CS(C)=O) 0.16; (in Cc1ccccc1) 0.09; (in ClC(Cl)Cl) 0.1. The photoluminescence quantum yield reads like this: (in ClCCl) 0.09; (in O) 0.02.

Consider `CC(C)(C)c1ccc(-c2c3cccc4c(-c5ccccc5)cc5c(-c6ccc(C(C)(C)C)cc6)c6cccc7c(-c8ccccc8)cc2c(c76)c5c43)cc1`, for which the photoluminescence quantum yield (in ClCCl) came out at 0.26.

In turn, `N#Cc1c(-n2c3ccccc3c3cc(Br)ccc32)c(C#N)c(-n2c3ccccc3c3cc(Br)ccc32)c(-n2c3ccccc3c3cc(Br)ccc32)c1-n1c2ccccc2c2cc(Br)ccc21` came in with a photoluminescence quantum yield (in Cc1ccccc1) of 0.85.

Turning to `F[B-]1(F)n2c(c3cccc4cccc2c43)=Nc2cccc(Cl)[n+]21`, the photoluminescence quantum yield is 0.99 (in C1CCOC1); 0.99 (in CC#N); 0.99 (in CCCCCC); 0.99 (in Cc1ccccc1); 0.99 (in ClCCl).

Turning to `C[Si]1(C)c2ccc(-c3ccccc3)cc2C=Cc2cc(-c3ccccc3)ccc21`, under “in ClCCl”, the photoluminescence quantum yield is 0.38.

`COC(=O)[C@H](Cc1ccc2oc3c(c2c1)=CC1=C(c2ccc(OC)cc2)c2cc4c5cc(C[C@H](NC(=O)OC(C)(C)C)C(=O)OC)ccc5oc4n2[B-](F)(F)[N+]=31)NC(=O)OC(C)(C)C` showed a photoluminescence quantum yield (in C1CCCCC1) of 0.81, a photoluminescence quantum yield (in CCOC(C)=O) of 0.86 and a photoluminescence quantum yield (in CO) of 0.82.

In the case of `CCCN1/C(=C/C=C(/C=C/C2=[N+](CCC)c3ccccc3C2(C)C)c2ccc3ccccc3n2)C(C)(C)c2ccccc21`, the photoluminescence quantum yield by setting is: (in CO) 0.18; (in CS(C)=O) 0.37; (in O) 0.01.

Regarding `COc1cc(C(=O)O)cc(OC)c1O`, the photoluminescence quantum yield (in O) stood at 0.009.

`c1cc(-c2c3ccccc3c(-c3ccc4ccccc4c3)c3ccccc23)cc(-n2c3ccccc3c3ccccc32)c1` registered a photoluminescence quantum yield (in ClCCl) of 0.73.

On to `c1ccc(-p2c3ccccc3c3sc4ccccc4c32)cc1` (stereo not given), for which the photoluminescence quantum yield (in ClCCl) was 0.24.

As for `CCCCCCCCCCCCN1C(=O)c2c(c3ccc4cc(-c5ccc(OC)cc5)c(OC)cc4c3c3c2ccc2cc(-c4ccc(OC)cc4)c(OC)cc23)C1=O`, the photoluminescence quantum yield (in ClCCl) stood at 0.196.

In the case of `CC1(C)c2ccccc2N(c2ccccc2)c2ccc(-c3nc(-c4ccccc4)nc(-c4ccccc4)n3)cc21`, the photoluminescence quantum yield under setting [1] worked out at 0.55.

As for `CN(C)c1ccc(C2=[N+]3C(=Nc4c5ccccc5c(-c5ccc(N(C)C)cc5)n4[B-]3(F)F)c3ccccc32)cc1`, the photoluminescence quantum yield (in ClCCl) is 0.01.

Regarding `F[B-]1(F)Oc2ccccc2-c2cc(-n3c4ccc(-c5ccccc5)cc4c4cc(-c5ccccc5)ccc43)cc[n+]21`, under setting [1], the photoluminescence quantum yield came out at 0.7.

On to `Cc1cc(C)c(B(c2cc(-c3ccc(C(F)(F)F)cc3)sc2-c2sc(-c3ccc(C(F)(F)F)cc3)cc2P(=O)(c2ccccc2)c2ccccc2)c2c(C)cc(C)cc2C)c(C)c1`, for which the photoluminescence quantum yield (in CO) is 0.41.

As for `CC/[NH+]=c1\cc2oc3cc(NCCC(=O)NC(C(=O)OC)C(C)C)c4ccccc4c3nc-2cc1C` (stereo not given), the photoluminescence quantum yield (in CCO) amounted to 0.4 and the photoluminescence quantum yield (in O) was 0.26.

`c1ccc(-n2c3ccccc3c3ccccc32)cc1` showed a photoluminescence quantum yield (in CCO) of 0.46.

The compound `CCC1=C(C)C2C(c3ccc(-c4ccc(-c5nc6c7ccccc7c7ccccc7c6n5-c5ccc(C(C)(C)C)cc5)cc4)cc3)c3c(C)c(CC)c(C)n3[B-](F)(F)[N+]2=C1C` (stereo not given) registered a photoluminescence quantum yield (in ClC(Cl)Cl) of 0.672.

The compound `Cn1c2nc(=O)[nH]c(=O)c-2nc2ccccc21` came in with a photoluminescence quantum yield (in CC1CCCO1) of 0.3.

Compound `Cc1cccc(Nc2ccccc2C(=O)O)c1C` returned a photoluminescence quantum yield (in C1CCCCC1) of 0.0049; a photoluminescence quantum yield (in C1CCOC1) of 0.0074; a photoluminescence quantum yield (in C1COCCO1) of 0.0035; a photoluminescence quantum yield (in CC#N) of 0.0013; a photoluminescence quantum yield (in CCOC(C)=O) of 0.0032; a photoluminescence quantum yield (in CN(C)C=O) of 0.0013.

For the setting “in ClCCl”, `FC(F)(F)c1ccccc1B1c2ccccc2N(c2ccccc2)c2ccccc21` gave a photoluminescence quantum yield of 0.79.

For the setting “in C1CCOC1”, `CN(C)c1ccc(C(=Cc2ccc(/C=C(\C#N)c3ccccc3)cc2)c2ccc(N(C)C)cc2)cc1` returned a photoluminescence quantum yield of 0.053.

`F[B-]12OC(c3ccccc3)=Nc3cccc([n+]31)N=C(c1ccccc1)O2` showed a photoluminescence quantum yield (in ClCCl) of 0.2.

With `CCCCCCCCN1c2ccccc2Sc2cc(/C=C/c3ccc(N(c4ccc(/C=C/c5ccc6c(c5)Sc5ccccc5N6CCCCCCCC)cc4)c4ccc(/C=C/c5ccc(/C=C/c6ccc(N(c7ccc(/C=C/c8ccc(N(c9ccccc9)c9ccccc9)cc8)cc7)c7ccc(/C=C/c8ccc(N(c9ccccc9)c9ccccc9)cc8)cc7)cc6)c6nsnc56)cc4)cc3)ccc21`, the photoluminescence quantum yield runs as follows: (in C1CCOC1) 0.031; (in CCOC(C)=O) 0.062; (in CN(C)C=O) 0.001; (in Cc1ccccc1) 0.349; (in ClC(Cl)Cl) 0.06; (in ClCCl) 0.003.

Compound `O=c1ccc2ccccc2o1` gave a photoluminescence quantum yield (in O) of 0.001.

The compound `COc1cnc(-c2cc[n+](C3=C(F)C(F)(F)C(F)(F)[C-]3F)cc2)s1` registered a photoluminescence quantum yield (in CC#N) of 0.64; a photoluminescence quantum yield (in CC(C)=O) of 0.44; a photoluminescence quantum yield (in CCO) of 0.21; a photoluminescence quantum yield (in CN(C)C=O) of 0.04; a photoluminescence quantum yield (in CO) of 0.08; a photoluminescence quantum yield (in CS(C)=O) of 0.02. For the same compound, the photoluminescence quantum yield runs as follows: (in ClC(Cl)Cl) 0.73; (in ClCCl) 0.76.

Take `CCOC(=O)c1cc(C(=O)OCC)c2ccc(O)cc2n1`: the photoluminescence quantum yield (in CCO) was 0.007.

In the case of `C(/C=C/Nc1cccc2ccccc12)=[NH+]c1cccc2ccccc12`, the photoluminescence quantum yield (in CS(C)=O) is 0.01.

Where the note is “in ClCCl”, `COC(=O)c1[nH]c(-c2ccc(Br)cc2)c2nnc3ccc(OC)cc3c12` had a photoluminescence quantum yield of 0.114.

In the case of `OCc1ccc2c3cccc4cccc(c5cccc1c52)c43`, the photoluminescence quantum yield (in CCO) is 0.95.

The compound `COc1ccc2cc(C3=[N+]4C(=Nc5c(-c6ccccc6)cc(-c6ccc7cc(OC)ccc7c6)n5[B-]4(F)F)C(c4ccccc4)=C3)ccc2c1` came in with a photoluminescence quantum yield (in ClC(Cl)Cl) of 0.33 and a photoluminescence quantum yield (in ClCCl) of 0.33.

On to `COc1ccc(C#Cc2c3cc4ccccc4cc3c(C#Cc3ccc(OC)cc3)c3cc4ccccc4cc23)cc1`, for which, where the note is “in ClCCl”, the photoluminescence quantum yield turned out to be 0.03.

Take `O=c1c2cccc3cccc(c32)c2nc3c4ccccc4c4ccccc4c3n12`: the photoluminescence quantum yield (in ClCCl) stood at 0.15.

On to `C(#Cc1ncc(-c2ccccc2)o1)c1ccco1`, for which the photoluminescence quantum yield (in ClCCl) was 0.

Consider `CC1=N/C(=C\c2cccc(N(C)C)c2)C(=O)N1CCO`, for which the photoluminescence quantum yield by setting is: (in C1CCOC1) 0.12; (in CC#N) 0.02; (in CCCCCC) 0.43.

`c1ccc(-n2c3ccccc3c3c2c2ccccc2n3-c2ccccc2)cc1` showed a photoluminescence quantum yield (in Cc1ccccc1) of 0.404.

In turn, `CCOC(=O)C1=C(N)n2c(=O)c3ccccc3c(=O)n2C1c1ccc(C)cc1` (stereo not given) came in with a photoluminescence quantum yield (in CS(C)=O) of 0.063.

Under “in ClC(Cl)Cl”, `Cc1ccc(/C2=c3\cc/c(o3)=C(\c3ccc(C)cc3)c3ccc([nH]3)-c3ccc4n3[B-](F)(F)[N+]3=C(C=CC3=C4c3cccs3)c3ccc2[nH]3)cc1` showed a photoluminescence quantum yield of 0.09.

For the compound `Cc1cc(-c2ccc(-n3c4ccccc4c4ccccc43)cc2)nc(-c2ccc(-c3ccccc3)cc2)n1`, the photoluminescence quantum yield (in C1CCOC1) came to 0.62, the photoluminescence quantum yield (in CN(C)C=O) is 0.59, the photoluminescence quantum yield (in Cc1ccccc1) is 0.52 and the photoluminescence quantum yield (in ClC(Cl)Cl) was found to be 0.75.

In the case of `COc1ccc(C(=O)OCc2c(C)c(=O)n3c(=O)c(C)c(C)n23)cc1`, the photoluminescence quantum yield (in CCO) stood at 0.637.

As to `CCCCCCCCOc1ccc(C#Cc2ccc3oc4ccccc4c3c2)c(OCCCCCCCC)c1`, the photoluminescence quantum yield (in ClCCl) is 0.45.

As to `COCCOCCOCCOCCOc1cc(C=O)c(OCCOCCOCCOCCOC)cc1C=O`, the photoluminescence quantum yield came to 0.12 (in CC(C)(C)O); 0.1 (in CC(C)CO); 0.11 (in CC(C)O); 0.09 (in CCCCO); 0.14 (in CCCO); 0.18 (in CCO). Further, the photoluminescence quantum yield runs as follows: (in CN(C)C=O) 0.04; (in CNC=O) 0.05; (in CO) 0.22; (in NC=O) 0.31; (in O) 0.55.

On to `C[Si](C)(c1cccc2ccccc12)c1c2ccccc2cc2ccccc12`, for which the photoluminescence quantum yield is, setting by setting: (in C1CCCCC1) 0.72; (in CC#N) 0.62.

In turn, `Cc1cc2oc3ccccc3c2c2[nH]c3ccccc3c12` gave a photoluminescence quantum yield (in ClCCl) of 0.485.

On to `COc1ccc(N(c2ccc(/C=C(\C)c3ccccc3)cc2)c2ccc(/C=C(\C)c3ccccc3)cc2)cc1`, for which, where the note is “in Cc1ccccc1”, the photoluminescence quantum yield was found to be 0.48.

As for `Cc1ccc2c(c1)c1cc(C)ccc1n2-c1cccc(-n2c3ccc(C)cc3c3cc(C)ccc32)c1C#N`, the photoluminescence quantum yield (in Cc1ccccc1) amounted to 0.34 and the photoluminescence quantum yield under setting [1] was 0.66.

Under “in ClCCl”, `[O-][n+]1c(/C=C/c2ccc(/C=C/c3ccccc3)cc2)nc(N2CCOCC2)c2c1CCCC2` gave a photoluminescence quantum yield of 0.04.

For the origin of these results see the Deep4Chem optical property database.
